Numbering of substitutions follows the chain as printed. Read-outs that look alike come from different tables or passages of the source.
Assays:
COX-1 [1] = target: T1, COX-1 (Macaca mulatta, UniProt F6S984); assay: COX-1 whole-blood enzymatic immunoassay; format: cell-based; conditions: read-out: IC50 COX-1 Monkey, mean ± SD (n = 3)
T1 sequence (F6S984 25-599): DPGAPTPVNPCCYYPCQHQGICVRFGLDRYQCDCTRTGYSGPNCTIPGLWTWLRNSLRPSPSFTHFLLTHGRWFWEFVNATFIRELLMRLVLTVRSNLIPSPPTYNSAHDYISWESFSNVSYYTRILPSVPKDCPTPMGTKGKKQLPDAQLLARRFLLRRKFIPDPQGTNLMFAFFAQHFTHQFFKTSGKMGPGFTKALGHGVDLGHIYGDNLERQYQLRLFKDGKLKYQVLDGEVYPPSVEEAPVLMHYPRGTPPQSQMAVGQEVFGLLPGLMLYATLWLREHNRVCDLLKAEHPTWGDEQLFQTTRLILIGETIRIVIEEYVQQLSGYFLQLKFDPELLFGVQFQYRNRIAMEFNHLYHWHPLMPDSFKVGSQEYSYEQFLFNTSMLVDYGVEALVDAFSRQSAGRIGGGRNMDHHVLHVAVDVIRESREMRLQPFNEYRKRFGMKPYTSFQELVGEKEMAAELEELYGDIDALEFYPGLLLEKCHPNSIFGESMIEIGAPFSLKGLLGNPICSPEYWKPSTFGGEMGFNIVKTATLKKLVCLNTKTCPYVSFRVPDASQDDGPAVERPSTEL

COX-2 [2] = target: T2, COX-2 (Macaca mulatta, UniProt F7BWZ9); assay: COX-2 whole-blood enzymatic immunoassay; format: cell-based; conditions: read-out: IC50 COX-2 Monkey, mean ± SD (n = 3)
T2 sequence (F7BWZ9 18-604): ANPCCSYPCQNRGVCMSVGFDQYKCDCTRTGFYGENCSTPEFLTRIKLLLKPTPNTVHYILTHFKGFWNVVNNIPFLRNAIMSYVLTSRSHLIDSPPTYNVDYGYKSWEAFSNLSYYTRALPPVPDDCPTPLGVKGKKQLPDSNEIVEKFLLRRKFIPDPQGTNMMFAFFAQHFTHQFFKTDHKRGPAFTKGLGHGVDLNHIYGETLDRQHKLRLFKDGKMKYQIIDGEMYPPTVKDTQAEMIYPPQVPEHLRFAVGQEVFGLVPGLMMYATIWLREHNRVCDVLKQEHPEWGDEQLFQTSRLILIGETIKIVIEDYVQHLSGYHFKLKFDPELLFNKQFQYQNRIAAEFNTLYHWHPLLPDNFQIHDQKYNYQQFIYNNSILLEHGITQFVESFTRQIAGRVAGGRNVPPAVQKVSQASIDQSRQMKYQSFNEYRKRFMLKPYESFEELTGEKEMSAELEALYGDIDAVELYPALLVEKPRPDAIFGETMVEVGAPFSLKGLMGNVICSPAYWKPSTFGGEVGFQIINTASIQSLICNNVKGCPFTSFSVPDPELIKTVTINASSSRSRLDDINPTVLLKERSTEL

COX-1 [3] = target: COX-1 (Homo sapiens, UniProt P23219); assay: COX-1 whole-blood enzymatic immunoassay; format: cell-based
COX-2 [4] = target: T3, COX-2 (Homo sapiens, UniProt P35354); assay: COX-2 whole-blood enzymatic immunoassay; format: cell-based
T3 sequence (P35354 18-604): T2 sequence (F7BWZ9 18-604) with Y7H, L49F, V101A, F150L, T163S, K191N, D208A, H211R, N363T, R570G

COX-1 [5] = target: T4, COX-1 (Rattus norvegicus, UniProt Q63921); assay: COX-1 whole-blood enzymatic immunoassay; format: cell-based
T4 sequence (Q63921 27-602): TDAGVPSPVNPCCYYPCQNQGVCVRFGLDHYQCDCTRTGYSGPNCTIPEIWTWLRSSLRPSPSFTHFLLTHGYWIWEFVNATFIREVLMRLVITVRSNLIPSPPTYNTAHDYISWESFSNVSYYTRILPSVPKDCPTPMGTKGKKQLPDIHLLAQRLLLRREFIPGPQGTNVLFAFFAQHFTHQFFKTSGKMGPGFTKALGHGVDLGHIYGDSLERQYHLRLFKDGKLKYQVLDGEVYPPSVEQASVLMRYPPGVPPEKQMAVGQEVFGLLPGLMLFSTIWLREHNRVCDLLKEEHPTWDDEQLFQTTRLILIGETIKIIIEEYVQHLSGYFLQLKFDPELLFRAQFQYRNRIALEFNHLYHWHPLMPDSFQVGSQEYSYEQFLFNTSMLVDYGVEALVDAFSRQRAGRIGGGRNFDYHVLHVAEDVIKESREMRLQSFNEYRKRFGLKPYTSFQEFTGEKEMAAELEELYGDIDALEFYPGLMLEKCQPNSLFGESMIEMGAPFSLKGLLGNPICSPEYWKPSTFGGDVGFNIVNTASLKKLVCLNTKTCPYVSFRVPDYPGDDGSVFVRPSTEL

human COX-1 = conditions: read-out: IC50 for human COX-1 (reported); human whole blood; cited from earlier work
[6] = read-out: IC50 COX-1 Human, human whole blood, mean ± SD (n = 3)

COX-1 (Homo sapiens, UniProt P23219), sequence (P23219 24-599): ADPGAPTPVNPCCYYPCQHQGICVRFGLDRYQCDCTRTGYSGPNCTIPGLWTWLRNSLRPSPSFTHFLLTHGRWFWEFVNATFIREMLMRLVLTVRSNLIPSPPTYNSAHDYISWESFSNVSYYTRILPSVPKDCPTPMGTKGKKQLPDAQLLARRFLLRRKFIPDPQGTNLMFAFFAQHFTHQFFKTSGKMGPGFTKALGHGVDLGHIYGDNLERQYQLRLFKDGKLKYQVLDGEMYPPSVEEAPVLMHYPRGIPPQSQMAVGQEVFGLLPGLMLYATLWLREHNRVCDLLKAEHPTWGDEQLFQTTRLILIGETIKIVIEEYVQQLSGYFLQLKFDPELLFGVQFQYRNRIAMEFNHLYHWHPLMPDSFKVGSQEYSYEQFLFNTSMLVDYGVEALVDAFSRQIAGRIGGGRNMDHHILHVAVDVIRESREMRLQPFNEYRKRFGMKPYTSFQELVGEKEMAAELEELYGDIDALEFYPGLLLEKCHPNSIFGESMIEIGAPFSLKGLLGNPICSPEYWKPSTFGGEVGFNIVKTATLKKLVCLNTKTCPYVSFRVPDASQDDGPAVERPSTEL

Compound	IC50 (COX-1 [1]) [nM]	IC50 (COX-2 [2]) [nM]	IC50 (COX-1 [3]) [nM]	IC50 (COX-2 [4]) [nM]	IC50 (COX-1 [3]; [6]) [nM]	IC50 (COX-1 [5]) [nM]	IC50 (human COX-1) [nM]	IC50 (COX-2 [4]; read-out: IC50 COX-2 Human, human whole blood, mean ± SD (n = 3)) [nM]
C[C@H](C(=O)O)c1cccc(C(=O)c2ccccc2)c1 [Inhibitor 4, (S)-ketoprofen, reference compound]	40 ± 17	400 ± 113	–	–	–	–	–	–
COc1ccc(-c2nc(SCF)nn2-c2ccc(OC)cc2)cc1 [Inhibitor 26, 3-(Fluoromethylthio)-1,5-bis(4-methoxyphenyl)-1H-1,2,4-triazole]	6.4 ± 0.8	–	5 ± 3.9	> 1000	–	–	–	–
COc1cc(NCc2cccs2)nc(-c2ccc(S(C)(=O)=O)cc2)n1 [Inhibitor 34, [2-(4-Methanesulfonylphenyl)-6-methoxypyrimidin-4-yl]thiophen-2-ylme-thylamine, reference compound]	> 1000	1 ± 0.5	–	–	> 1000	–	–	–
COc1ccc(-c2nc(OCC(F)(F)F)nn2-c2ccc(OC)cc2)cc1 [Inhibitor 20, 1,5-Bis(4-methoxyphenyl)-3-(2,2,2-trifluoroethoxy)-1H-1,2,4-triazole]	1 ± 0.3	> 1000	–	–	–	15	–	–
COc1ccc(-n2nc(OCF)nc2-c2ccccc2)cc1 [Inhibitor 32, 3-(Fluoromethoxy)-1-(4-methoxyphenyl)-5-phenyl-1H-1,2,4-triazole]	100	–	1.7 ± 0.6	100 ± 25	–	–	–	–
COc1ccc(-c2nc(OC)nn2-c2ccc(OC)cc2)cc1 [Inhibitor 5]	4.6 ± 1.3	> 1000	–	–	–	–	4.9	–
COc1ccc(-c2nc(S(=O)(=O)CF)nn2-c2ccc(OC)cc2)cc1 [Inhibitor 28, 3-(Fluoromethylsulfonyl)-1,5-bis(4-methoxyphenyl)-1H-1,2,4-triazole]	25 ± 3	–	3 ± 1.2	> 1000	–	–	–	–
COc1ccc(-n2nc(OC)nc2-c2ccccc2)cc1 [Inhibitor 31, 3-Methoxy-1-(4-methoxyphenyl)-5-phenyl-1H-1,2,4-triazole]	3 ± 2.5	–	–	–	3 ± 0.06	–	–	> 1000
COc1ccc(-n2nc(C(F)(F)F)nc2-c2ccc(F)nc2)cc1 [Inhibitor 24, 2-Fluoro-5-(1-(4-methoxyphenyl)-3-(trifluoromethyl)-1H-1,2,4-triazol-5-yl)pyridine]	10 ± 3	–	2 ± 0.1	> 1000	–	–	–	–
COc1ccc(-c2nc([S+]([O-])CF)nn2-c2ccc(OC)cc2)cc1 (stereo not drawn) [Inhibitor 27, 3-(Fluoromethylsulfinyl)-1,5-bis(4-methoxyphenyl)-1H-1,2,4-triazole]	5 ± 2	545 ± 102	3 ± 1.7	> 1000	–	–	–	–
